Experimental data published in US11840686B2, “Modulation of prekallikrein (PKK) expression” (Ionis Pharmaceuticals, Inc., priority 2013, dated 2023).
Strand notation (5' to 3'): a small letter for the sugar, then the base; units joined by * are phosphorothioate-linked, units joined directly phosphodiester-linked; [ ] holds rarer units or linkages, { } end groups; capitals alone tell only the bases. e = 2'-O-(2-methoxyethyl) (MOE); [5mC] = 5-methylcytosine; d = 2'-deoxy (DNA)

System: human PKK mRNA
Test: Antisense inhibition of human PKK mRNA in HepaRG cells, 3,000 nM (Example 1)
Format: cell-based
Conditions: relative to untreated control cells
Method: Antisense oligonucleotides were designed targeting a PKK nucleic acid and were tested for their effects on PKK mRNA in vitro. HepaRG™ cells, which are terminally differentiated hepatic cells derived from a human hepatic progenitor cell line and retain many characteristics of primary human hepatocytes (Lubberstedt M. et al., J. Pharmacol. Toxicol. Methods 2011 63: 59-68), were used in the screen.
The chimeric antisense oligonucleotides in the tables below were designed as 5-10-5 MOE gapmers. The gapmers are 20 nucleosides in length, wherein the central gap segment comprises of ten 2′-deoxynucleosides and is flanked by wing segments on the 5′ direction and the 3′ direction comprising five nucleosides each. Each nucleoside in the 5′ wing segment and each nucleoside in the 3′ wing segment has a 2′-O-methoxyethyl modification. The internucleoside linkages throughout each gapmer are phosphorothioate linkages. All cytosine residues throughout each gapmer are 5-methylcytosines. “Start site” indicates the 5′-most nucleoside to which the gapmer is targeted in the human gene sequence. “Stop site” indicates the 3′-most nucleoside to which the gapmer is targeted in the human gene sequence.
Cultured HepaRG™ cells at a density of 20,000 cells per well were transfected using electroporation with 3,000 nM antisense oligonucleotide. After a treatment period of approximately 24 hours, RNA was isolated from the cells and PKK mRNA levels were measured by quantitative real-time PCR. Human primer probe set RTS3454 (forward sequence […], designated herein as SEQ ID NO: 20; reverse sequence […], designated herein as SEQ ID NO: 21; probe sequence […], designated herein as SEQ ID NO: 22) was used to measure mRNA levels. PKK mRNA levels were adjusted according to total RNA content, as measured by RIBOGREEN®. The antisense oligonucleotides were tested in a series of experiments that had similar culture conditions. Results are presented as percent inhibition of PKK, relative to untreated control cells.

[1] = Table 3, HepaRG cells, electroporation with 3,000 nM antisense oligonucleotide, approx. 24 hours, PKK mRNA by RT-PCR (RTS3454)
[2] = Table 2, PKK mRNA, HepaRG cells, 3,000 nM, electroporation, ~24 h
[3] = Table 1, PKK mRNA, HepaRG cells, 3,000 nM, electroporation, ~24 h
[4] = Table 4, HepaRG cells, electroporation with 3,000 nM antisense oligonucleotide, approx. 24 hours, PKK mRNA by RT-PCR (RTS3454)

Substance: 531128 (antisense eA*eA*eG*eT*eT*d[5mC]*d[5mC]*dA*d[5mC]*d[5mC]*dT*dT*d[5mC]*dT*dA*eA*e[5mC]*eT*eG*eG) [compound 531128]
- % inhibition [1]: 18%

Substance: 531010 (eA*eA*eG*eA*eG*dT*dT*dT*dG*dT*dT*d[5mC]*d[5mC]*dT*d[5mC]*e[5mC]*eA*eA*e[5mC]*eA; antisense) [compound 531010]
- % inhibition [2]: 52%

Substance: 530956 (antisense eA*e[5mC]*eA*e[5mC]*eT*dA*dT*d[5mC]*dT*dT*dT*d[5mC]*dA*dA*dG*eA*eA*eG*e[5mC]*eA) [compound 530956]
- % inhibition [3]: 57%

Substance: 531018 (eG*eA*e[5mC]*e[5mC]*e[5mC]*dA*d[5mC]*dT*dG*dG*dT*dG*dT*d[5mC]*d[5mC]*eT*eA*eT*eG*eA; antisense) [compound 531018]
- % inhibition [2]: 54%

Substance: 531031 (antisense eT*eT*eT*eG*eG*dA*dA*dT*dT*d[5mC]*dA*dG*dT*dG*dT*eA*eA*eT*eT*e[5mC]) [compound 531031]
- % inhibition [2]: 59%

Substance: 531213 (e[5mC]*eA*eA*eA*eA*dT*dT*dA*dA*dT*dT*dG*dT*dG*d[5mC]*eA*eT*eA*eA*eT; antisense) [compound 531213]
- % inhibition [4]: 13%

Substance: 530930 (antisense eA*eA*eA*eT*eG*dA*dA*d[5mC]*dG*dG*dT*d[5mC]*dT*dT*d[5mC]*eA*eA*eG*e[5mC]*eT) [compound 530930]
- % inhibition [3]: 17%

Substance: 530949 (antisense eG*eG*eT*eG*eT*dA*d[5mC]*dA*dT*dG*dG*dA*dA*dG*d[5mC]*eT*eA*e[5mC]*eA*eT) [compound 530949]
- % inhibition [3]: 31%

Substance: 531214 (eT*eT*eT*eT*eT*d[5mC]*dT*dT*dT*dA*dA*dA*dT*dT*dT*eT*eG*e[5mC]*eT*eA; antisense) [compound 531214]
- % inhibition [4]: 37%

Substance: 531125 (antisense eA*e[5mC]*eT*e[5mC]*eG*d[5mC]*d[5mC]*dT*dT*dT*dG*dT*dG*dA*d[5mC]*eT*e[5mC]*eG*eA*eT) [compound 531125]
- % inhibition [1]: 23%

Substance: 531178 (antisense eA*e[5mC]*e[5mC]*eA*e[5mC]*dA*dG*dG*dA*dA*dA*d[5mC]*dT*dG*dT*eA*eG*e[5mC]*eA*eA) [compound 531178]
- % inhibition [4]: 72%

Substance: 530985 (antisense eA*eA*eA*eT*eT*dT*dT*dA*dG*dA*dA*dT*dG*dG*d[5mC]*eA*eG*eG*eG*eT) [compound 530985]
- % inhibition [3]: 32%

Substance: 531089 (eA*eA*eA*eA*e[5mC]*dA*d[5mC]*d[5mC]*dA*dT*dT*dA*dA*dA*dT*e[5mC]*e[5mC]*eA*eT*eT; antisense) [compound 531089]
- % inhibition [1]: 45%

Substance: 531189 (eA*eG*eG*eT*eG*dT*dT*d[5mC]*dT*dT*dG*d[5mC]*dT*dT*dA*eT*e[5mC]*e[5mC]*eT*e[5mC]; antisense) [compound 531189]
- % inhibition [4]: 63%

Substance: 531200 (e[5mC]*eA*eA*eA*eA*dT*d[5mC]*dA*d[5mC]*dA*dA*dG*dT*dT*d[5mC]*eT*eA*eG*eA*eT; antisense) [compound 531200]
- % inhibition [4]: 51%

Substance: 530943 (antisense eA*eT*e[5mC]*e[5mC]*eA*d[5mC]*dA*dG*dG*dA*dA*dA*d[5mC]*dT*dG*eT*eA*eG*e[5mC]*eA) [compound 530943]
- % inhibition [3]: 56%

Substance: 531008 (eT*eG*e[5mC]*eT*eG*dG*dA*dA*dG*dA*dT*dG*dT*dT*d[5mC]*eA*eT*eG*eT*eG; antisense) [compound 531008]
- % inhibition [2]: 51%

Substance: 531058 (antisense e[5mC]*e[5mC]*e[5mC]*eT*eT*dA*d[5mC]*dA*dA*dG*d[5mC]*dA*dT*d[5mC]*dT*eT*eT*eT*e[5mC]*e[5mC]) [compound 531058]
- % inhibition [2]: 60%

Substance: 531190 (eG*e[5mC]*eA*eG*eT*d[5mC]*dA*d[5mC]*dT*d[5mC]*d[5mC]*dT*d[5mC]*dT*dT*e[5mC]*e[5mC]*eA*eG*e[5mC]; antisense) [compound 531190]
- % inhibition [4]: 59%

Substance: 531006 (eG*e[5mC]*eT*eT*eG*dT*dT*dT*dT*dT*dG*dT*dT*dG*dT*eG*e[5mC]*eA*eG*eA; antisense) [compound 531006]
- % inhibition [3]: 49%

Substance: 531192 (eG*eA*eG*eT*eG*d[5mC]*d[5mC]*dA*dT*d[5mC]*dT*dT*d[5mC]*dT*d[5mC]*eT*eG*e[5mC]*eA*e[5mC]; antisense) [compound 531192]
- % inhibition [4]: 61%

Substance: 530999 (e[5mC]*eA*eG*eT*e[5mC]*dT*dT*d[5mC]*dT*dG*dG*dG*dA*dG*dT*eA*eA*eA*eG*eA; antisense) [compound 530999]
- % inhibition [3]: 31%

Substance: 531124 (antisense eG*eT*eA*e[5mC]*eT*dA*dA*dA*d[5mC]*dA*dT*d[5mC]*d[5mC]*dT*dA*eA*eG*eT*eG*eA) [compound 531124]
- % inhibition [1]: 2%

Substance: 531021 (eG*eT*e[5mC]*eT*eG*dA*d[5mC]*dA*dG*dA*dT*dT*dT*dA*dA*eA*eA*eT*eG*e[5mC]; antisense) [compound 531021]
- % inhibition [2]: 50%

Substance: 531165 (antisense eG*eT*eA*eA*eT*dA*dA*dA*dA*dG*dG*dA*dA*dT*dG*eA*eT*eA*eA*eA) [compound 531165]
- % inhibition [4]: 0%

Substance: 531109 (antisense eA*eG*e[5mC]*e[5mC]*e[5mC]*dA*dA*dG*dG*dA*dA*d[5mC]*dA*dT*d[5mC]*eT*e[5mC]*eA*e[5mC]*e[5mC]) [compound 531109]
- % inhibition [1]: 52%

Substance: 531032 (antisense eT*eG*eG*eT*eT*dT*dT*dT*dG*dG*dA*dA*dT*dT*d[5mC]*eA*eG*eT*eG*eT) [compound 531032]
- % inhibition [2]: 67%

Substance: 531122 (antisense eT*eA*eA*e[5mC]*eA*dA*dA*dA*dA*dT*dG*d[5mC]*d[5mC]*dT*dT*eG*eT*eG*e[5mC]*e[5mC]) [compound 531122]
- % inhibition [1]: 33%

Substance: 531065 (antisense e[5mC]*eT*eT*eT*eG*dG*dT*dG*dT*dA*dG*dA*d[5mC]*dA*d[5mC]*e[5mC]*eA*eG*eG*eT) [compound 531065]
- % inhibition [2]: 57%

Substance: 531024 (eT*eT*eT*eA*eT*dT*dT*dG*dT*dG*dA*dG*dA*dA*dA*eG*eG*eT*eG*eT; antisense) [compound 531024]
- % inhibition [2]: 69%

Substance: 531120 (antisense eA*eA*eA*eT*eA*dA*dA*dA*dG*d[5mC]*dA*d[5mC]*dT*d[5mC]*dA*eG*eA*e[5mC]*eT*eG) [compound 531120]
- % inhibition [1]: 0%

Substance: 531047 (antisense eA*eT*e[5mC]*eT*eT*dG*dA*dT*dA*dT*d[5mC]*dT*dT*dT*dT*e[5mC]*eT*eG*eG*e[5mC]) [compound 531047]
- % inhibition [2]: 68%

Substance: 530960 (antisense eA*eT*eT*e[5mC]*eT*dT*d[5mC]*dA*dA*d[5mC]*dA*d[5mC]*dT*dG*d[5mC]*eT*eA*eA*e[5mC]*e[5mC]) [compound 530960]
- % inhibition [3]: 58%

Substance: 530986 (e[5mC]*eG*eG*eG*eT*dA*dA*dA*dT*dT*dT*dT*dA*dG*dA*eA*eT*eG*eG*e[5mC]; antisense) [compound 530986]
- % inhibition [3]: 62%

Substance: 531160 (antisense eT*eG*eA*eT*eA*dT*d[5mC]*dA*dT*d[5mC]*dA*dT*d[5mC]*d[5mC]*d[5mC]*eA*eA*eT*eG*eA) [compound 531160]
- % inhibition [1]: 13%

Substance: 531140 (antisense eT*e[5mC]*eT*eT*e[5mC]*d[5mC]*dA*dG*dG*d[5mC]*d[5mC]*dA*dA*d[5mC]*d[5mC]*eA*e[5mC]*e[5mC]*eT*eT) [compound 531140]
- % inhibition [1]: 22%

Substance: 530987 (eA*e[5mC]*eT*e[5mC]*e[5mC]*d[5mC]*dG*dG*dG*dT*dA*dA*dA*dT*dT*eT*eT*eA*eG*eA; antisense) [compound 530987]
- % inhibition [3]: 0%
